# From PubChem BioAssay (NCI)
#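 Dose response: 5 concentrations. Exposure: 48 h. Format: 96-well plates. Endpoint: linear interpolation; highest concentration if not reached. TGI: concentration producing complete growth inhibition.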
# Columns and labels:
# Assay in all cases: NCI-60 cell line screen, 48 h
# A549 NSCLC = system: A549 NSCLC
# DU-145 prostate = system: DU-145 prostate
# HCC-2998 colon = system: HCC-2998 colon
# HL-60(TB) leukemia = system: HL-60(TB) leukemia
# HOP-62 NSCLC = system: HOP-62 NSCLC
# KM12 colon = system: KM12 colon
# LOX IMVI melanoma = system: LOX IMVI melanoma
# NCI-H23 lung = system: NCI-H23 lung
# OVCAR-3 ovarian = system: OVCAR-3 ovarian
# RPMI-8226 leukemia = system: RPMI-8226 leukemia
# SF-268 CNS = system: SF-268 CNS
# SW-620 colon = system: SW-620 colon
# UACC-62 melanoma = system: UACC-62 melanoma
Structure (SMILES),TGI (A549 NSCLC) [µM],TGI (DU-145 prostate) [µM],TGI (HCC-2998 colon) [µM],TGI (HL-60(TB) leukemia) [µM],TGI (HOP-62 NSCLC) [µM],TGI (KM12 colon) [µM],TGI (LOX IMVI melanoma) [µM],TGI (NCI-H23 lung) [µM],TGI (OVCAR-3 ovarian) [µM],TGI (RPMI-8226 leukemia) [µM],TGI (SF-268 CNS) [µM],TGI (SW-620 colon) [µM],TGI (UACC-62 melanoma) [µM]
Cc1ccc(C(=O)NCc2ccccc2)cc1N=NN(C)C,> 100,> 100,> 100,> 100,> 100,> 100,> 100,> 100,> 100,> 100,> 100,> 100,> 100
CCCCCCc1cc2cc(C(=O)Nc3ccc(F)cc3)c(=N)oc2cc1O,14.9,6.78,> 100,4.62,12.2,10.1,4.93,4.6,> 100,4.96,5.61,> 100,8.7
Oc1c(Br)ccc2cccnc12,> 100,> 68.8,> 100,1.32,> 100,> 100,> 28.5,7.28,> 23.3,> 27.9,> 100,> 45.6,7
C=CC1(CC[C@]2(c3ccc(OC)c(OC)c3)C=[N+]([O-])O[C@H](O[C@@H]3CCCC[C@H]3C(C)(C)c3ccccc3)C2)OCC(C)(C)CO1,> 54.8,49.9,31.3,4.81,36.5,41.4,35.1,> 100,25.1,26.5,52.1,> 46.5,33.9
CC(=O)SC(C[N+](=O)[O-])c1ccc2c(c1)OCO2 (stereo not given),24.1,33.7,3.47,4.67,36.5,12.7,4.35,34.6,16.6,> 22.7,> 82.5,11.9,11.3
CC(=O)NC1C(Sc2ncn(C3OC(CO)C(O)C(O)C3NC(C)=O)n2)OC(CO)C(O)C1O (stereo not given),> 100,> 100,> 100,> 100,> 100,> 100,> 100,> 100,> 100,> 100,> 100,> 100,> 100
O=[N+]([O-])c1c(F)c(F)c2c(c1F)N(CCCCCl)c1ccccc1S2,31.8,26.1,8.48,5.7,38.3,23.5,3.06,21.7,19.5,20.8,18.3,8.78,26.9
CS(=O)(=O)N1CC(CCl)c2ccc(O)cc21 (stereo not given),11.1,11.3,4.2,6.19,13,7.83,14.4,7.6,9.3,6.91,3.61,11.5,28.7
CCCCCCCCCCCC(=O)OC[C@@H](C[As](=O)(O)O)OC(=O)CCCCCCCCCCC,31.3,36.6,20.1,> 30,28.8,17.1,18.1,17.8,16.5,> 68.2,> 32.2,29.1,6.94
CC1(C)O[C@H]2OC(CO)C(N=[N+]=[N-])[C@H]2O1 (stereo not given in full),> 100,> 100,> 100,> 100,> 100,> 100,> 100,> 100,> 100,> 100,> 100,> 100,> 100
c1ccc2c3[nH]c(c2c1)=Nc1ccc(cc1)-c1nc2ccc(cc2o1)N=c1[nH]c(c2ccccc12)=Nc1ccc2nc(oc2c1)-c1ccc(cc1)N=3,> 100,> 100,42.7,12.4,> 100,> 100,> 100,> 100,> 100,86.2,> 100,> 100,> 100
NCCCN(CCCN)CCc1cn(C(=O)c2ccccc2)cn1,26.7,11.3,19,10.8,23.4,22.2,43.5,36.7,7.75,10,24.2,38.2,23
CCOC(=O)c1c(OCC)[nH]c(=O)c(C(c2cccs2)c2c(O)c(C(=O)OCC)c(OCC)[nH]c2=O)c1O,32.8,26.9,35,40.7,35.8,42.9,30.7,82.3,30.4,> 100,35,34.1,28.6
OC(C/C=N/N=C/CC(O)(C(F)(F)Cl)C(F)(F)Cl)(C(F)(F)Cl)C(F)(F)Cl,> 10,> 10,> 10,> 10,> 10,> 10,> 10,> 10,> 10,> 10,> 10,> 10,> 10
COC(=O)C1=C(OC)[C@H]2C#C/C=C\C#C[C@@H]3Nc4c(cc(O)c5c4C(=O)c4ccccc4C5=O)[C@]24O[C@@]34[C@H]1C,0.111,< 0.01,< 0.0135,< 0.01,< 0.01,0.0475,< 0.01,< 0.01,0.113,0.0188,< 0.0341,0.0486,< 0.01
